Data: patent publication US20260365653A1, “IRREVERSIBLE MUTEGFR INHIBITORS” (Bayer Aktiengesellschaft, priority 2022, published 2026)
pIC50: −log10 of the molar value.

What was measured:
[1] = molecular target: T1, mutEGFR (D770_N771insSVD) (Homo sapiens, UniProt P00533, DUP768-770); assay: Exon20-Mutant-EGFR (D770_N771insSVD) kinase assay (TR-FRET); format: biochemical; conditions: mutEGFR (D770_N771insSVD) kinase assay IC50, Table 2a; D770_N771insSVD; 2 mM ATP
T1 construct: GST-EGFR #3 (SVD between D770 and N771); made in house; host or cells: Sf9 insect cells (baculovirus)

[2] = molecular target: T2, mutEGFR (D770_N771insNPG, T790) (Homo sapiens, UniProt P00533, INS770NPG/T790M); assay: mutEGFR (D770_N771insNPG, T790) kinase assay; format: biochemical; conditions: Table 2a, D770_N771insNPG
T2 construct: exact insNPG construct not described; in-house EGFR proteins were N-terminal GST fusions from baculovirus/insect cells (borders R669-A1210 given only for WT, insSVD, insASV)
From the text: The different EGFR proteins used in the biochemical kinase activity inhibition assays were generated inhouse by expression in insect cells using Baculo Virus system and subsequent purification as described in the following paragraphs.
The cDNAs encoding the various protein sequences from human EGFR human (P00533) were optimized for expression in eukaryotic cells and synthesized by the GeneArt Technology at Life Technologies.

BA/F3 (insSVD) cells = assay: Ba/F3-EGFR-insSVD cell survival assay (Cell Titer-Glo); format: cell-based; conditions: Mus musculus, BaF3, 48 h, Table 3a, cell survival, Cell Titer-Glo, with 10 ng/ml EGF, without IL-3
Procedure, shortened: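 Ba/F3 cells stably expressing retroviral EGFR-insSVD or insSVD T790M, grown without IL-3 on 10 ng/ml EGF, 4000 cells/well. Compound pinned in, 48 h at 37° C. Viability by CellTiter-Glo luminescence.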

T2 sequence (P00533 with tags, fused parts or gaps INS770NPG/T790M limits assumed): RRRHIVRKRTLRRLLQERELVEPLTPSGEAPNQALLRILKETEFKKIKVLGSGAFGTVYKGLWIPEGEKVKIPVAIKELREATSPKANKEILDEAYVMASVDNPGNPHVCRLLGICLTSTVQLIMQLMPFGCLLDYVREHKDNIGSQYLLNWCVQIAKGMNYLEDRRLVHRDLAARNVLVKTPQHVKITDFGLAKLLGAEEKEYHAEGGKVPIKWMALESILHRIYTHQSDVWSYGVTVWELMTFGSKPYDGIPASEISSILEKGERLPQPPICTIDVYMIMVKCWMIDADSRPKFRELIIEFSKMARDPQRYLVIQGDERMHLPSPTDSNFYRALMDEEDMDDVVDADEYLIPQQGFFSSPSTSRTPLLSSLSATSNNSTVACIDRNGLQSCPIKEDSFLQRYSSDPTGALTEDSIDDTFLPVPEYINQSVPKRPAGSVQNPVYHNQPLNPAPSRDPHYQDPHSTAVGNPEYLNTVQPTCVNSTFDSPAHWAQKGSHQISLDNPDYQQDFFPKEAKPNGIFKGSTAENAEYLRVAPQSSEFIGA
T1 sequence (P00533 with tags, fused parts or gaps DUP768-770): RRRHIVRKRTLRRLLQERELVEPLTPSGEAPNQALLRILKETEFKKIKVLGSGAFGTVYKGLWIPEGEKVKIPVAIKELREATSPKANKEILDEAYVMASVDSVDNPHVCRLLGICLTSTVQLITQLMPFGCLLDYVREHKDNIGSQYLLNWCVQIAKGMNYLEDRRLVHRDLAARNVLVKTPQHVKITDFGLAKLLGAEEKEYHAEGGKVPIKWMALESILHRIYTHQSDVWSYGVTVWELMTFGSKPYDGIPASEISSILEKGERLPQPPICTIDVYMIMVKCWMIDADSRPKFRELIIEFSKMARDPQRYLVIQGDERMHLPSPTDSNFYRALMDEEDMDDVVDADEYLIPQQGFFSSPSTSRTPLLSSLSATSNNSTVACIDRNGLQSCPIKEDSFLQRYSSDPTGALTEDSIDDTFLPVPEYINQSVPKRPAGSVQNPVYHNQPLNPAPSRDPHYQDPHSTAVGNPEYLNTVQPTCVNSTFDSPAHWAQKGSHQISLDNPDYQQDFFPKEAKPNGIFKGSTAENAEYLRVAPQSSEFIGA

Row | SMILES | pIC50 [1] | pIC50 [2] | pIC50 (BA/F3 (insSVD) cells)
1 | CN(C)C/C=C/C(=O)N1CCn2nc(-c3ccc(OC(F)F)cc3)c(-c3ccncc3)c2C1 [Example 144, (2E)-1-{2-[4-(difluoromethoxy)phenyl]-3-(pyridin-4-yl)-6,7-dihydropyrazolo[1,5-a]pyrazin-5(4H)-yl}-4-(dimethylamino)but-2-en-1-one] | 8.06 | 7.51 | 5.83
2 | CN(C)C/C=C/C(=O)N1CCn2nc(-c3ccc(OC(F)(F)F)cc3)c(-c3ccncc3)c2C1 [Example 145, (2E)-4-(dimethylamino)-1-[3-(pyridin-4-yl)-2-[4-(trifluoromethoxy)phenyl]-6,7-dihydropyrazolo[1,5-a]pyrazin-5(4H)-yl]but-2-en-1-one] | 8.05 | 7.22 | 6.22
3 | C#Cc1ccc(-c2nn3c(c2-c2ccncc2)CN(C(=O)/C=C/CN(C)C)CC3)cc1 [Example 146, (2E)-4-(dimethylamino)-1-[2-(4-ethynylphenyl)-3-(pyridin-4-yl)-6,7-dihydropyrazolo[1,5-a]pyrazin-5(4H)-yl]but-2-en-1-one] | 6.17 | 5.93 | 5.33
4 | CCOc1ccc(-c2nn3c(c2-c2ccncc2)CN(C(=O)/C=C/CN(C)C)CC3)cc1 [Example 147, (2E)-4-(dimethylamino)-1-[2-(4-ethoxyphenyl)-3-(pyridin-4-yl)-6,7-dihydropyrazolo[1,5-a]pyrazin-5(4H)-yl]but-2-en-1-one] | 7.44 | 6.70 | 5.53
5 | CN(C)C/C=C/C(=O)N1CCn2nc(-c3ccc(C(F)F)cc3)c(-c3ccncc3)c2C1 [Example 148, (2E)-1-{2-[4-(difluoromethyl)phenyl]-3-(pyridin-4-yl)-6,7-dihydropyrazolo[1,5-a]pyrazin-5(4H)-yl}-4-(dimethylamino)but-2-en-1-one] | 8.72 | 8.04 | 6.41
6 | CN(C)C/C=C/C(=O)N1CCn2nc(-c3cc(Cl)ccc3F)c(-c3ccncc3)c2C1 [Example 149, (2E)-1-[2-(5-chloro-2-fluorophenyl)-3-(pyridin-4-yl)-6,7-dihydropyrazolo[1,5-a]pyrazin-5(4H)-yl]-4-(dimethylamino)but-2-en-1-one] | 8.81 | 8.59 | 6.70
7 | CN(C)C/C=C/C(=O)N1CCn2nc(-c3cccc(Cl)c3)c(-c3ccncc3)c2C1 [Example 150, (2E)-1-[2-(3-chlorophenyl)-3-(pyridin-4-yl)-6,7-dihydropyrazolo[1,5-a]pyrazin-5(4H)-yl]-4-(dimethylamino)but-2-en-1-one] | 9.12 | 8.98 | 7.27
8 | CN(C)C/C=C/C(=O)N1CCn2nc(-c3ccc(C(F)(F)F)c(F)c3)c(-c3ccncc3)c2C1 [Example 151, (2E)-4-(dimethylamino)-1-{2-[3-fluoro-4-(trifluoromethyl)phenyl]-3-(pyridin-4-yl)-6,7-dihydropyrazolo[1,5-a]pyrazin-5(4H)-yl}but-2-en-1-one] | 8.49 | 7.92 | 6.39
9 | CN(C)C/C=C/C(=O)N1CCn2nc(-c3ccccc3F)c(-c3ccncc3)c2C1 [Example 153, (2E)-4-(dimethylamino)-1-[2-(2-fluorophenyl)-3-(pyridin-4-yl)-6,7-dihydropyrazolo[1,5-a]pyrazin-5(4H)-yl]but-2-en-1-one] | 8.64 | 8.00 | 6.25
10 | CN(C)C/C=C/C(=O)N1CCn2nc(-c3cccc(C#N)c3)c(-c3ccncc3)c2C1 [Example 159, 3-{5-[(2E)-4-(dimethylamino)but-2-enoyl]-3-(pyridin-4-yl)-4,5,6,7-tetrahydropyrazolo[1,5-a]pyrazin-2-yl}benzonitrile] | 7.08 | 7.41 | 6.12
11 | COc1ccc(-c2nn3c(c2-c2ccncc2)CN(C(=O)/C=C/CN(C)C)CC3)c(F)c1 [Example 160, (2E)-4-(dimethylamino)-1-[2-(2-fluoro-4-methoxyphenyl)-3-(pyridin-4-yl)-6,7-dihydropyrazolo[1,5-a]pyrazin-5(4H)-yl]but-2-en-1-one] | 8.83 | 8.18 | 6.01
12 | CN(C)C/C=C/C(=O)N1CCn2nc(-c3ccc(SC(F)(F)F)cc3)c(-c3ccncc3)c2C1 [Example 161, (2E)-4-(dimethylamino)-1-[3-(pyridin-4-yl)-2-{4-[(trifluoromethyl)sulfanyl]phenyl}-6,7-dihydropyrazolo[1,5-a]pyrazin-5(4H)-yl]but-2-en-1-one] | 7.03 | 6.20 | 5.70
13 | O=C(/C=C/CN1CCC1)N1CCn2nc(-c3ccc(Cl)cc3)c(-c3ccncc3)c2C1 [Example 162, (2E)-4-(azetidin-1-yl)-1-[2-(4-chlorophenyl)-3-(pyridin-4-yl)-6,7-dihydropyrazolo[1,5-a]pyrazin-5(4H)-yl]but-2-en-1-one] | 9.29 | 8.63 | 7.36
14 | O=C(/C=C/CN1CCCCC1)N1CCn2nc(-c3ccc(Cl)cc3)c(-c3ccncc3)c2C1 [Example 163, (2E)-1-[2-(4-chlorophenyl)-3-(pyridin-4-yl)-6,7-dihydropyrazolo[1,5-a]pyrazin-5(4H)-yl]-4-(piperidin-1-yl) but-2-en-1-one] | 9.80 | 9.21 | 7.32

Continued by rising pIC50 [1], values first:

Row | pIC50 [1] | pIC50 [2] | SMILES | pIC50 (BA/F3 (insSVD) cells)
15 | 8.19 | 8.28 | COc1cccc(-c2nn3c(c2-c2ccncc2)CN(C(=O)/C=C/CN(C)C)CC3)c1 [Example 155, (2E)-4-(dimethylamino)-1-[2-(3-methoxyphenyl)-3-(pyridin-4-yl)-6,7-dihydropyrazolo[1,5-a]pyrazin-5(4H)-yl]but-2-en-1-one] | 5.98
16 | 8.30 | 7.79 | CCc1ccc(-c2nn3c(c2-c2ccncc2)CN(C(=O)/C=C/CN(C)C)CC3)cc1 [Example 158, (2E)-4-(dimethylamino)-1-[2-(4-ethylphenyl)-3-(pyridin-4-yl)-6,7-dihydropyrazolo[1,5-a]pyrazin-5(4H)-yl]but-2-en-1-one] | 6.32
17 | 8.46 | 7.56 | CN(C)C/C=C/C(=O)N1CCn2nc(-c3ccccc3Cl)c(-c3ccncc3)c2C1 [Example 154, (2E)-1-[2-(2-chlorophenyl)-3-(pyridin-4-yl)-6,7-dihydropyrazolo[1,5-a]pyrazin-5(4H)-yl]-4-(dimethylamino)but-2-en-1-one] | 5.55
18 | 8.52 | 8.03 | CN1CCN(C/C=C/C(=O)N2CCn3nc(-c4ccc(Cl)cc4)c(-c4ccncc4)c3C2)CC1 [Example 164, (2E)-1-[2-(4-chlorophenyl)-3-(pyridin-4-yl)-6,7-dihydropyrazolo[1,5-a]pyrazin-5(4H)-yl]-4-(4-methylpiperazin-1-yl) but-2-en-1-one] | 6.81
19 | 8.84 | 8.33 | Cc1ccc(-c2nn3c(c2-c2ccncc2)CN(C(=O)/C=C/CN(C)C)CC3)cc1 [Example 156, (2E)-4-(dimethylamino)-1-[2-(4-methylphenyl)-3-(pyridin-4-yl)-6,7-dihydropyrazolo[1,5-a]pyrazin-5(4H)-yl]but-2-en-1-one] | 7.01
20 | 8.98 | 8.34 | CN(C)C/C=C/C(=O)N1CCn2nc(-c3ccc(C(F)(F)F)cc3F)c(-c3ccncc3)c2C1 [Example 152, (2E)-4-(dimethylamino)-1-{2-[2-fluoro-4-(trifluoromethyl)phenyl]-3-(pyridin-4-yl)-6,7-dihydropyrazolo[1,5-a]pyrazin-5(4H)-yl}but-2-en-1-one] | 6.59
21 | 9.00 | 8.75 | Cc1cccc(-c2nn3c(c2-c2ccncc2)CN(C(=O)/C=C/CN(C)C)CC3)c1 [Example 157, (2E)-4-(dimethylamino)-1-[2-(3-methylphenyl)-3-(pyridin-4-yl)-6,7-dihydropyrazolo[1,5-a]pyrazin-5(4H)-yl]but-2-en-1-one] | 6.93
22 | 9.20 | 8.61 | O=C(/C=C/CN1CCOCC1)N1CCn2nc(-c3ccc(Cl)cc3)c(-c3ccncc3)c2C1 [Example 165, (E)-1-(2-(4-chlorophenyl)-3-(pyridin-4-yl)-6,7-dihydropyrazolo[1,5-a]pyrazin-5(4H)-yl)-4-morpholinobut-2-en-1-one] | 6.97
23 | 9.59 | 8.99 | CC(C)(C)NC/C=C/C(=O)N1CCn2nc(-c3ccc(Cl)cc3)c(-c3ccncc3)c2C1 [Example 167, (2E)-4-(tert-butylamino)-1-[2-(4-chlorophenyl)-3-(pyridin-4-yl)-6,7-dihydropyrazolo[1,5-a]pyrazin-5(4H)-yl]but-2-en-1-one] | 7.45
24 | 9.77 | 9.47 | CC(C)N(C)C/C=C/C(=O)N1CCn2nc(-c3ccc(Cl)cc3)c(-c3ccncc3)c2C1 [Example 166, (2E)-1-[2-(4-chlorophenyl)-3-(pyridin-4-yl)-6,7-dihydropyrazolo[1,5-a]pyrazin-5(4H)-yl]-4-[isopropyl(methyl)amino]but-2-en-1-one] | 7.11
